# Legend:
# [1] = test system: RPE degeneration; experiment: Alu RNA induced RPE degeneration in mice, fundus images and ZO-1 staining; assay type: in vivo; settings: subretinal, WT mice (FIG. 26)
# Protocol: FIGS. 25A and 25B. NLRC4 knockdown blocks Alu RNA (SEQ ID NO: 86) induced ASC oligomerization and RPE degeneration. Human RPE cell treated with siRNA target on NLRC4 (SMARTPOOL siRNA for NLRC4: CAACUGGGCUCCUCUGUAA; SEQ ID NO: 93) and NAIP (SMARTPOOL siRNA for NAIP: GUAAAGAGCUAUAUGGAUA; SEQ ID NO: 94), 24 hours later, treated with Alu RNA (SEQ ID NO: 86 at 100 pmol) FIG. 25A. […] The band of ASC oligomers was indicated by black arrow. […] The hyperdense areas due to the RPE degeneration in fundus images and ZO-1 disorganizations in RPE sheet are indicated by white arrows.
# FIG. 26. […] Wilde type of C57/B6 mice were intravitreally injected with siRNA target on Ddx17 (siRNA for Ddx17: GGCUAGAUGUGGAAGAUGU; SEQ ID NO: 95), and two days later, Nlrc4^−/−, Naip1-6^−/−, mice and Ddx17 knockdown mice were subretinally injected with Alu RNA (SEQ ID NO: 86). […] The hyperdense areas due to the RPE degeneration in fundus images and ZO-1 disorganizations in RPE sheet are indicated by white arrows.
# (§1) Next, we asked whether Alu RNA (SEQ ID NO: 86) also triggered NLRC4 inflammasome activation in human RPE cells. We performed immunofluorescence staining experiments to examine whether Alu RNA (SEQ ID NO: 86) can induce NLRC4 speck formation in human RPE cells. We noticed punctate structures resembling specks of NLRC4 in human RPE cells in response to Alu RNA (SEQ ID NO: 86) treatment (FIG. 24A). […] We further investigated downstream events of NLRC4 inflammasome activation by studying NLRC4-induced ASC oligomerization, a critical step involved in caspase-1 cleavage. NLRC4 siRNA, when co-administered with Alu RNA (SEQ ID NO: 86), blocked ASC oligomerization in vitro (FIG. 25A) and RPE degeneration in vivo (FIG. 25B).
# We delivered Alu RNA (SEQ ID NO: 86) or Alu RNA (SEQ ID NO: 86)+siDDX17 subretinally in WT or NLRC4 KO or NAIP1-6 KO mice and examined for RPE degeneration using fundus photos and ZO-1 staining as described previously.
# [2] = test system: NLRC4 phosphorylation (site S533); experiment: SINE RNA induced NLRC4 phosphorylation (S533) in BMDM, Western blot; assay type: cell-based, mouse; settings: SINE RNAs each at 100 pmol, polyI:C 10 μg/ml (FIG. 1)
# Protocol: FIG. 1. SINE RNA induced NLRC4 phosphorylation (site S533) in mice macrophage (BMDM). Mouse bone marrow derived macrophage (BMDM) were treated with SINE RNAs (Alu (SEQ ID NO: 86), B1 (SEQ ID NO: 87), and B2 (SEQ ID NO: 88), each at 100 pmol), and polyI:C (10 μg/ml). Phosphorylated Nlrc4 (p-Nlrc4) and total Nlrc4 (t-Nlrc4) were detected by Western blot. Actin is provided as a loading control. The p-NLRC4 bands were indicated by black arrow.
# Previous studies have shown that NLRC4 inflammasome activation in response to Salmonella exposure requires two steps for its activation, phosphorylation on Ser533 residue of NLRC4 and NAIP mediated oligomerization of NLRC4. […] Moreover, treatment with SINE RNAs induced caspase-1 p20 cleavage, indicative of inflammasome activation (FIG. 2). For the subsequent experiments in this study, we used Alu RNA (SEQ ID NO: 86) as the stimulus to activate the NLRC4 inflammasome. To date, two kinases are reported to phosphorylate NLRC4 at S533: protein kinase C delta (PKCδ) and leucine rich repeat-containing kinase-2 (LRRK2). To explore the roles of these kinases in Alu RNA (SEQ ID NO: 86) induced NLRC4 phosphorylation, we pretreated BMDMs with pharmacological inhibitors of LRRK2 (GSK2578215A, GSK) and PKCδ (Rottlerin, Rot) respectively.
# [3] = test system: ASC specks; experiment: SINE RNA induced ASC specks in BMDM, immunofluorescence; assay type: cell-based, mouse; settings: BMDMs, transfection vs Mock (FIG. 3A)
# Protocol: FIGS. 3A and 3B. SINE RNA-induced ASC oligomerization is dependent on NLRC4 (BMDM). FIG. 3A. Immunofluorescence images of endogenous ASC specks and NLRC4 puncta in BMDMs after transfected with Alu (SEQ ID NO: 86) or B2 (SEQ ID NO: 88) RNA or transfection reagents only (Mock). […] Moreover, NLRC4 proteins assembled as puncta, and co-resided with ASC specks. FIG. 3B. ASC oligomerizations were evaluated in wild-type and Nlrc4^−/− BMDMs through cross-linking and western blot. […] The bands of oligomeric ASC protein were indicated by black arrow.
# The activated NLRC4 inflammasome undergoes oligomerization by assembling into high-molecular mass multiprotein complexes. We first investigated in situ assembling of NLRC4 and apoptosis speck (ASC) like protein complexes in response to SINE RNA treatment of BMDMs. Immunofluorescence studies show increased NLRC4 and ASC specks in SINE RNA-treated BMDMs compared to mock-treated cells (FIG. 3A). To assess NLRC4 inflammasome assembly, WT and NLRC4 KO BMDM cells were treated with Alu RNA (SEQ ID NO: 86). Disuccinimidyl suberate (DSS) cross-linked lysates were resolved using denaturing SDS-PAGE to detect ASC oligomers and cell lysates were resolved using native polyacrylamide gel electrophoresis (NATIVE-PAGE) to detect NLRC4 oligomerization. […] NLRC4/ASC oligomerization is essential for the cleavage of pro-caspase-1 into its active form p20 and IL-1β release.
# [4] = test system: NLRC4; experiment: Alu RNA induced NLRC4 oligomers in human RPE cells, native PAGE; assay type: cell-based; settings: Alu RNA transfection vs mock (FIG. 24B)
# Description: FIGS. 24A and 24B. Alu RNA (SEQ ID NO: 86) induced NLRC4 activation in human RPE cells. To test whether Alu RNA (SEQ ID NO: 86) induces NLRC4 activation in human RPE, we transfected human RPE with Alu RNA (SEQ ID NO: 86 at 100 pmol). FIG. 24A. Immunofluorescence staining on NLRC4 show Alu RNA (SEQ ID NO: 86) induced cytosolic NLRC4 punctate in hRPE cells. The NLRC4 aggregates induced by Alu RNA (SEQ ID NO: 86) are indicated by white arrows. FIG. 24B. Alu RNA (SEQ ID NO: 86) induced NLRC4 (p-NLRC4) phosphorylation and oligomerization. Loading control show by Actin. NLRC4 oligomers were detected by Tris-glycine native PAGE. […] The band of NLRC4 oligomers is indicated by black arrow.
# as §1
substance,measurement,setting,value
"Alu RNA: human SINE RNA, SEQ ID NO: 86",RPE degeneration induced by Alu RNA,[1],induced RPE degeneration
same,NLRC4 phosphorylation on S533 in BMDMs,[2],induced
same,formation of ASC specks,[3],induced the formation of ASC specks
same,"formation of NLRC4 oligomers, human RPE cells",[4],induced the formation of NLRC4 oligomers
